# Laboratory results: ChEMBL document CHEMBL4610107, “Ene-yne Hydroquinones from a Marine-derived Strain of the Fungus Pestalotiopsis neglecta with Effects on Liver X Receptor Alpha” (J Nat Prod, 2020)
# Biological target: T1, Oxysterols receptor LXR-alpha (Homo sapiens, UniProt Q13133)
# T1 sequence (Q13133 whole entry): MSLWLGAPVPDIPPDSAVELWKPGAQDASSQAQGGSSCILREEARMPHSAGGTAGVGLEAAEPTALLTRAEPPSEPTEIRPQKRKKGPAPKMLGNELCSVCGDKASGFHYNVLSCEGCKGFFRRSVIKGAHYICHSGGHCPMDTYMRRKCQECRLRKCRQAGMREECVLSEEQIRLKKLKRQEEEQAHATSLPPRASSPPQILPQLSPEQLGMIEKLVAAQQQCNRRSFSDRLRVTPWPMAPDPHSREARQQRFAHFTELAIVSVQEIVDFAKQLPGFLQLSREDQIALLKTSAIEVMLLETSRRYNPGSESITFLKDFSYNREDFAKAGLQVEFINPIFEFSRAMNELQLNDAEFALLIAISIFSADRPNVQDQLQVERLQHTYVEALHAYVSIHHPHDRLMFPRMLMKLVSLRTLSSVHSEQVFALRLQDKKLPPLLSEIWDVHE
# Test: Binding affinity to LXRalpha (unknown origin) by surface plasmon resonance assay; call rule not given here
compound,measurement,value
O=C(O)Cc1cccc(OCCCN(Cc2cccc(C(F)(F)F)c2Cl)CC(c2ccccc2)c2ccccc2)c1,Kd,Not Active
